Reference: publication PMC11088877, “AMP-activated protein kinase can be allosterically activated by ADP but AMP remains the key activating ligand” (Biochemical Journal, 2024)
Where two headings read alike, the source gives them in different places.

Legend:
[1] = target: T1, unphosphorylated human α2β2γ1 complex (WT) (Homo sapiens, UniProt P54619+P54646); experiment: AMPK activation and Thr172 phosphorylation by the LKB1:STRADα:MO25α complex, WT; format: biochemical; details: 300 µM nucleotide, 200 µM Mg.ATP2−
T1 construct: made in house; host or cells: Escherichia coli
T1 sequence (P54619 whole entry): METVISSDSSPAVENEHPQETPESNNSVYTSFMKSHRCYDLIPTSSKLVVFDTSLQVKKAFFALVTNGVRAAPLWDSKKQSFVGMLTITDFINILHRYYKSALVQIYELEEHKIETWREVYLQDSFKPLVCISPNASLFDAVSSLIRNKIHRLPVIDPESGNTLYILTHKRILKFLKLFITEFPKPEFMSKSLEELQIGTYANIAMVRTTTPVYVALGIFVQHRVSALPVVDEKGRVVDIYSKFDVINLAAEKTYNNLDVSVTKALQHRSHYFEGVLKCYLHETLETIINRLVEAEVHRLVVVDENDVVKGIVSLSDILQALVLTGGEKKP
T1 sequence (P54646 whole entry): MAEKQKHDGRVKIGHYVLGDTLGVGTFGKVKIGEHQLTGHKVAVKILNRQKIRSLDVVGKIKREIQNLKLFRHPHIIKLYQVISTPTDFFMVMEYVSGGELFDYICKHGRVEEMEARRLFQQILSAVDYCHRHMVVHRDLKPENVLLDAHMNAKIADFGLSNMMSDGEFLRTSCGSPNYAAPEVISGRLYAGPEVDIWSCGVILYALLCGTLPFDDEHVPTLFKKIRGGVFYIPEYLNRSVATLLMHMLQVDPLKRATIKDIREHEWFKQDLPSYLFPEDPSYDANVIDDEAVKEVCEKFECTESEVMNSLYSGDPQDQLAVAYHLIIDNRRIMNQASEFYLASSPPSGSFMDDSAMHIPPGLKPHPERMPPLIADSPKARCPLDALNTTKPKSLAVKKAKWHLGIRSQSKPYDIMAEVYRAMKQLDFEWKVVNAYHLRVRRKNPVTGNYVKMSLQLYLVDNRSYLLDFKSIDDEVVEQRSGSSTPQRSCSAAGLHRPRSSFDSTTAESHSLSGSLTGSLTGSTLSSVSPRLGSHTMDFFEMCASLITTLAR
T1 sequence (O43741 whole entry partner): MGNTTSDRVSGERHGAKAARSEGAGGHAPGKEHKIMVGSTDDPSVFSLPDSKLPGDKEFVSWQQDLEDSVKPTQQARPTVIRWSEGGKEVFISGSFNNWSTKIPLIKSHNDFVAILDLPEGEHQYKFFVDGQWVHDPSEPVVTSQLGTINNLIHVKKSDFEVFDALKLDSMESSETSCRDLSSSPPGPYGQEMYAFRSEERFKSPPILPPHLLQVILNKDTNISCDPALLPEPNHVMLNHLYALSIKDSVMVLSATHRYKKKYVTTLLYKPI
Method: (§1) The relative roles of the three CBS sites in the other two mechanisms of activation of AMPK by AMP or ADP, i.e. promotion of Thr172 phosphorylation by LKB1, and protection against Thr172 dephosphorylation by protein phosphatases, have not been examined previously. As expected, incubation of the α2β2γ1 AMPK complex with a fixed, limiting amount of purified LKB1:STRADα:MO25α complex in the presence of 200 µM Mg.ATP^2− caused a large degree of activation (Figure 5A) and phosphorylation (Figure 5B) of AMPK (unphosphorylated α2β2γ1 complex), which were stimulated more than 2-fold by 300 µM AMP and 1.6-fold by 300 µM ADP.
(§2) Figure 5. Effects of AMP or ADP on AMPK activation and Thr172 phosphorylation by the LKB1:STRADα:MO25α complex. Unphosphorylated human α2β2γ1 complexes (WT, or with L129D/V130D, V276G/L277G or I312G mutations affecting CBS1, CBS3 or CBS4 respectively) were incubated with ATP and a fixed concentration of the LKB1:STRADα:MO25α complex in the presence or absence of AMP or ADP (both 300 µM), as described in the Materials and methods section. After the incubation aliquots were withdrawn for (A) AMPK assay or (B) Western blots. […] For (B), due to a limit on the number of lanes that could be run on one gel, single replicates from the triplicate assays were analysed. […]

[2] = target: T2, human α2β2γ1 complex, CBS4 mutant (I312G) (Homo sapiens, UniProt P54619+P54646, I312G); experiment: AMPK activation and Thr172 phosphorylation by the LKB1 complex, CBS4 mutant; format: biochemical; details: 300 µM nucleotide, 200 µM ATP
T2 construct: made in house; host or cells: Escherichia coli
T2 sequence (P54619 whole entry I312G): as the sequence (P54619 whole entry) above, with I312G counted along it
T2 sequence (P54646 whole entry): as the sequence (P54646 whole entry) above
T2 sequence (O43741 whole entry partner): as the sequence (O43741 whole entry partner) above
Method: as §1, §2

[3] = tested on: bacterially expressed AMPK; details: 5 mM Mg2+, 200 µM ATP, cited from earlier work

Compound	stimulation of activation and phosphorylation of AMPK by LKB1:STRADα:MO25α complex [1]	effect of nucleotide on activation/phosphorylation by LKB1 in the mutant [2]	allosteric activation ([3]; 200 µM AMP) [fold]	effect on kinase activity ([3]; 200 µM ADP)	allosteric activation ([3]; any ADP concentration up to 200 µM)
Nc1ncnc2c1ncn2[C@@H]1O[C@H](COP(=O)(O)O)[C@@H](O)[C@H]1O [AMP]	more than 2 fold	abolished	~2	–	–
Nc1ncnc2c1ncn2[C@@H]1O[C@H](COP(=O)(O)OP(=O)(O)O)[C@@H](O)[C@H]1O [ADP]	1.6 fold	abolished	–	a small inhibition	no allosteric activation
